Laboratory results as given in ChEMBL document CHEMBL3507680, “University of Dundee, Gates Library screen for HepG2 cell viability”.

Test: Human HepG2 cell viability assay in 384 well format
Format: toxicity, cell-based
Parameters: dose 125 nL, time 70.5 hour; concentration not given beside the values
Settings: HepG2 cells, read-out: Inhibition

| Compound | cytotoxicity at 70.5 h [%] |
| --- | --- |
| CN(CC(=O)Nc1ccccc1)C(=O)CN(C)c1ccc(Cl)cn1 | -10.4 |
| O=C1CC[C@]2(CC[C@@H](NC(=O)NCc3ccccc3)CC2)N1 | 15.6 |
| Cc1n[nH]c2c1C(c1ccc3c(c1)OCCO3)SCC(=O)N2 (stereo not given) | -0.607 |
| Cc1ccccc1C(C(=O)N(Cc1cnn(C)c1)CC(C)C)N(C)C (stereo not given) | -9.52 |
| c1ccc(-n2ccc(CN3CCCC3Cn3cccn3)n2)cc1 (stereo not given) | -13.6 |
| FC(F)(F)CCc1ccnc(N[C@H]2CC[C@H](n3cnnc3)CC2)n1 | -9.96 |
| CC(C)[C@H]1CN(C(=O)CC2CCC2)C[C@@H]1N(C)C | 18.9 |
| CC(C)c1ncc2c(n1)CN(Cc1noc(-c3ccccc3)n1)CC2 | 0.861 |
| NC(=O)NC(=O)CNC1(c2ccc(Cl)cc2)CCC1 | 2.08 |
| CC(=O)Nc1ccc2nc(CN(C)Cc3snnc3C)ccc2c1 | -9.42 |
| COc1ccc(/C=C/CN2CCCC3(C2)CN(C)C(=O)O3)cc1 (stereo not given) | 11.6 |
| CC(O)c1cccc(N2CCC3(CC2)Nc2ccccc2NC3=O)n1 (stereo not given) | 21.3 |
| CC(=O)N1CCCC(c2ccc(N3CCOCC3)cn2)C1 (stereo not given) | -5.65 |
| Cc1cc(C)n(CC2CCCN2Cc2c(C)noc2C)n1 (stereo not given) | 34.3 |
| CCCc1c(C(=O)N2CCN(c3cnccn3)CC2)cnn1C | -14.4 |
| O=C(Nc1ccccc1)C1=CC2(CCNCC2)c2ccccc21 | 3.63 |
| CN(C)C(=O)N1CCN(C)c2ncccc2C1 | -7.19 |
| CCn1c(CN2CCC(O)(c3ccc4c(c3)OCO4)CC2)cnc1SC | 1.92 |
| CCc1ncncc1C(=O)Nc1ccc2ccn(CCN(C)C)c2c1 | -9.77 |
| CCC(CC)NC(=O)c1nc2n(n1)-c1ccccc1S(=O)(=O)N2 | -82.7 |
| Cn1ccnc1CN(CCO)C(=O)C1CCN(C(=O)C2CC2)CC1 | 0.876 |
| CCCn1nnnc1COC(=O)C1COc2ccccc2O1 (stereo not given) | -6.23 |
| Cn1c(CN2CCCCC2)nnc1C1CCN(c2nccc(N)n2)CC1 | -7.78 |

| Compound | cytotoxicity at 70.5 h [%] |
| --- | --- |
| CCS(=O)(=O)c1ccccc1C(=O)NCc1ccnc(N(C)C)c1 | -11.2 |
| Clc1ccc(Cc2nc(CNCCn3cccn3)cs2)cc1 | -1.63 |
| Cc1ccc(CCNC(=O)c2cccnc2)o1 | 30.2 |
| Cc1nc(C)n(CC2CCCN2Cc2nc(-c3ccoc3)no2)n1 (stereo not given) | -11.7 |
| COc1c(C)cnc(CN2CCCC2c2noc(C)n2)c1C (stereo not given) | 3.95 |
| Cc1cccc(-c2noc(CN3CCCCC3Cn3cncn3)n2)c1 (stereo not given) | -6.45 |
| CC(C)S(=O)(=O)N1CCC(Cc2cccc(C(=O)O)c2)C1 (stereo not given) | -4.82 |
| CC(C)c1nc2c(n1C)CCN(CCCOc1ccc(C#N)cc1)C2 | 2.99 |
| COC(=O)c1cc(OCC2CCC2)cc(C(=O)NCC(C)(C)O)c1 | -4.36 |
| Cc1ccnc(NC(=O)c2cccc(OCc3nnnn3C)c2)c1 | -17.9 |
| Cc1cc(C)n(C2CCN(S(C)(=O)=O)CC2)n1 | 9.79 |
| COC[C@@H]1CC[C@H]2[C@H](CCN2S(=O)(=O)c2ccc(OC)cc2)O1 | -6.4 |
| CNC(=O)CN1CCN(C(=O)Nc2ccc(C)s2)CC1 | -1.2 |
| Cc1cc(C(F)(F)F)nc(N2CCN3CCCC3C2)n1 (stereo not given) | -10.5 |
| CCCNC(=O)CCC(=O)Nc1cc2sc(C)nc2cc1OC | 0.815 |
| CN1CCN(C(=O)CCc2cc(Br)cs2)CC1 | -6.76 |
| O=C(CCCN1CCCCC1)NC(C(=O)O)c1cccc(F)c1 (stereo not given) | -6.49 |
| CC(C(=O)NCc1ccnc(N2CCCC2)c1)n1cccn1 (stereo not given) | -10.3 |
| Cc1nc(C(C)C)sc1C(=O)NCCn1nc2ccccn2c1=O | -1.52 |
| CN(Cc1cccc(C(N)=O)c1)Cc1nc2c(cnn2C)c(=O)[nH]1 | -15.8 |
| COC(=O)CC(C)(C)CC(=O)N1CCC(C(F)(F)F)CC1 | 1.71 |
| Cc1cc(C(=O)N2CCCC3(CCCN3Cc3cccnc3)C2)[nH]n1 (stereo not given) | 12.8 |
| CN(Cc1cnn(C)c1)CC1CCCN1c1cccnn1 (stereo not given) | -4.73 |

| Compound | cytotoxicity at 70.5 h [%] |
| --- | --- |
| CCc1cc(NC(=O)C2CCCN(C(=O)c3ccncc3)C2)[nH]n1 (stereo not given) | -10.6 |
| COc1cc(C)sc1C(=O)NCCC(=O)N(C)c1ccccc1 | -2.86 |
| CCc1nsc(NC2CCCn3nc(CC)nc32)n1 (stereo not given) | -5.19 |
| Cn1cc(N)c(-c2nnc3n2CCCC3)n1 | -0.222 |
| O=c1ccc2c(n1Cc1cccnc1)CCN(C1CCOC1)CC2 (stereo not given) | -2.89 |
| CN1CCCC(CCC(=O)N2CCc3[nH]c(-c4ccccc4)nc3C2)C1 (stereo not given) | 20.8 |
| Cc1noc(C)c1-c1cccc(C2CCN(CC(=O)N(C)C)CC2)n1 | -2.68 |
| Fc1cccc(-n2cc(CN3CCCCC3CCn3ccnc3)cn2)c1 (stereo not given) | 4.66 |
| Cc1noc(C)c1CN(C)C(=O)NCCOc1ccc(F)cc1F | -6.66 |
| CCOC1Sc2nnc(C)n2N=C1c1ccc(Br)cc1 (stereo not given) | -8.58 |
| Cc1cnc(CN2CCN(c3ccnc(-c4ccccc4)n3)CC2)cn1 | -10.6 |
| O=C(NCc1nncn1C1CCCCC1)C1CNCCO1 (stereo not given) | -6.16 |
| Cc1cn(Cc2ccccc2)nc1N | 2.81 |
| CCC(=O)Nc1ccc(C(C)Nc2nc3c(cnn3C)c(=O)[nH]2)cc1 (stereo not given) | -5.84 |
| CS(=O)(=O)NCc1ncn2c1CN(C(=O)C1CCCO1)CCC2 (stereo not given) | 0.98 |
| Clc1cnccc1N1CCC(OC2CCOCC2)CC1 | -1.59 |
| COC(=O)c1cccc2nc([C@H]3CCN(CC(C)C)C3)oc12 | -4.07 |
| O=C1Nc2ccccc2C12CCN(Cc1cccs1)CC2 | -2.74 |
| Cc1cc(C(F)(F)F)nc(C2COCCN2S(C)(=O)=O)n1 (stereo not given) | -6.03 |
| Cc1nc(COc2cccc(C#N)c2)no1 | 2.53 |
| O=C(CSC1CCc2ccccc2NC1=O)NCCc1ccco1 (stereo not given) | 7.74 |
| NC(=O)c1ccc(N2CCN(Cc3cccc4nsnc34)CC2)nc1 | -4.59 |
| O=C(NCc1ccccc1OCCO)Nc1ccc2c(c1)CCC2 | 0.688 |

| Compound | cytotoxicity at 70.5 h [%] |
| --- | --- |
| CCCN(CCC)C1(Cc2cc(-c3cccc(O)c3)on2)COC1 | -2.95 |
| CC(C)[C@@H]1CN(Cc2c[nH]nc2-c2ccc(F)cc2)C[C@H]1NS(C)(=O)=O | -2.13 |
| CC(CO)N(C)C(=O)c1cn(-c2ccc(Br)cc2)cn1 (stereo not given) | -7.34 |
| CCC[C@H]1CN(S(C)(=O)=O)C[C@@H]1NC(=O)Cc1ccc(OC)cc1 | 9.24 |
| Cc1cnc(CNC(=O)c2cc3c(s2)CCN3S(C)(=O)=O)cn1 | -0.66 |
| Cc1cc(C)cc(C(=O)Nc2cn[nH]c2)c1 | -8.68 |
| COc1cccc(CCNC(=O)c2ccc(=O)n(C)c2)c1 | -2.94 |
| CCNC(=O)N(C)C1CCCc2nc(C)sc21 (stereo not given) | -2.26 |
| Cc1nc2ccccn2c1CC(=O)N[C@@H]1CCC[C@@H](N2CCCC2)[C@@H]1O | -1.64 |
| CCN1CC(O)CN(C(=O)c2cccc(C(F)(F)F)c2)CC1=O (stereo not given) | -4.06 |
| O[C@@H]1CCN(CC2CCOC2)[C@H]1Cc1ccccc1 (stereo not given in full) | -3.68 |
| Cc1ncnc2c1CCN(C(=O)c1ccsc1)CC2 | 7.97 |
| CCC(Nc1nc(C(F)(F)F)nc2ccccc12)C(=O)O (stereo not given) | 2.5 |
| Cc1noc(C)c1CN1C[C@@H]2CN(C(=O)c3cnccn3)C[C@@H]2C1 | 0.0874 |
| CO[C@H]1CN(Cc2ccccc2F)C[C@@]12CCCO2 | -5.8 |
| Cc1nc(-c2nnc(SCC(=O)O)n2C(C)c2ccccc2)co1 (stereo not given) | -10 |
| Cc1ccc(C)c(Sc2nccn(C)c2=O)c1 | -10.6 |
| CC(C)c1nc(C2CCCN(C(=O)c3ccc4c(c3)OCO4)C2)no1 (stereo not given) | 18.1 |
| CN(Cc1ccco1)C1COC2(CCN(Cc3nccs3)CC2)C1 (stereo not given) | -21.8 |
| O=C(NCCNc1ncccn1)C1CC(=O)N(CC(F)(F)F)C1 (stereo not given) | -14.3 |
| O=C(c1cc(F)ccc1F)C1CCN(C(=O)c2cnccn2)CC1 | -4.44 |
| Nc1nc2c(c(N3CCC(CN4CCCC4=O)CC3)n1)CCNCC2 | -8.27 |
| O=S(=O)(NCCn1ccc(-c2cccs2)n1)C1CC1 | -0.924 |

| Compound | cytotoxicity at 70.5 h [%] |
| --- | --- |
| CCOCC(=O)NC1(c2cccc(Br)c2)CC1 | 13.9 |
| O=C(Cn1nc(Br)nc1Br)N1CCOCC1 | 27.3 |
| CC(=O)N1N=C(c2ccco2)OC1C(=O)NCCc1ccc(F)cc1 (stereo not given) | 0.102 |
| CC(=O)N1CCCN(C(=O)CCOc2ccc(C(C)C)cc2)CC1 | 21.2 |
| Cc1cnn(CC2CN(CC(=O)Nc3ccncc3)CCO2)c1 (stereo not given) | -5.95 |
| Cn1cc(N2CCCC(Nc3ccc4c(c3)CCCO4)C2=O)cn1 (stereo not given) | -0.945 |
| CC(C)c1cc(NC2CCCN(C(=O)c3cccs3)C2)ncn1 (stereo not given) | 2.55 |
| CC(C)CNC(=O)c1cn(C)c(=O)c2ccccc12 | 7.18 |
| OCc1cccc(CNCc2cccc3c2OCCO3)c1 | -1.29 |
| Cc1ccc(-n2c(SCC(=O)O)nnc2-c2cccc(C)c2)cc1 | -7.34 |
| CCN(CC)CCN1CCO[C@H]2[C@@H](OCc3ccccn3)CC[C@@H]21 | -4.9 |
| CCCC(O)CN1CC(C)(C)CN(C(=O)c2ccc(Cl)cc2)CC1=O (stereo not given) | -9.8 |
| O=C(CN1CCN(CC(O)C2CC2)CC1)NCc1ccc(F)cc1 (stereo not given) | -0.525 |
| Cc1cc(S(C)(=O)=O)c(C)c(S(=O)(=O)NCC2CCC2)c1 | -9.88 |
| CCCC(=O)N1CCC(N2CC[C@@](O)(CCOC)[C@H](C)C2)CC1 | -5 |
| Cc1[nH]nc(CCC(=O)N2C[C@H]3CC[C@@H]2CN(C(=O)N(C)C)C3)c1C | -8.2 |
| O=C(N1CCOCC1)N1CCCC(c2ncncc2-c2ccncc2)C1 (stereo not given) | -9.55 |
| Cc1csc2nc3n(c(=O)c12)CCN(Cc1ccccn1)CC3 | 2.36 |
| CC(NC(=O)Cc1ccccc1F)(C(N)=O)c1cccc(Cl)c1 (stereo not given) | -6.76 |
| CCN(Cc1noc(C2CCC2)n1)C(=O)c1cnc2ccccc2c1 | 13.1 |
| Cc1nc(C)c(C(=O)N2CCCc3c(F)cccc32)o1 | -5.01 |
| Cc1cnc(C(=O)N2CCN(C(=O)CC(C)C)[C@@H]3CS(=O)(=O)C[C@@H]32)cn1 | -7.52 |
| Cc1cc(CN2CCN(c3ccc4nncn4n3)CC2)no1 | -11.5 |
